Measurements reported in patent US11066455B2, “Tmem100 peptides and variants thereof and their use in treating or preventing diseases or conditions” (The Johns Hopkins University, priority 2014, dated 2021).
* marks the point of attachment. Myristoyl = CCCCCCCCCCCCCC(=O)*

B1: Tmem100-3Q mutant (full-length, mouse) (protein)
chain: MTEESTKENLGAPKSPTPVTMEKNPKREVVVTTGPLVSEVQLMAATGGAELSCYRCIIPFAVVVFITGIVVTAVAYSFNSHGSIISIFGLVLLSSGLFLLASSALCWKVRQRNKKVQQQESQTALVVNQRCLFA

What was measured:
[1] = system: neuropathic mechanical hypersensitivity in SNL rats; format: in vivo, rat; conditions: intrathecal 10 μl; h-T100 10-100 μM, HC-030031 10-200 μM, scrambled 100 μM
Description: An modified L5 SNL model was produced as described in previously (He et al., 2014; Shechter et al., 2013). Male Sprague-Dawley rats (200-350 g, Harlan, Indianapolis, Ind.) were anesthetized with 2% isoflurane. The left L5 spinal nerve was ligated with a 6-0 silk suture and cut distally. The muscle layer was closed with 4-0 chromic gut suture and the skin closed with metal clips. For intrathecal catheter implantation, a small slit was cut in the atlanto-occipital membrane of rats, into which a saline-filled piece of PE-10 tubing (6-7 cm) was inserted (He et al., 2014). […] Hypersensitivity to punctuate mechanical stimulation was determined with the up-down method by using a series of von Frey filaments (0.38-15.1 g) applied for 4-6 seconds to the test area on the plantar surface of the hindpaw (Chaplan et al., 1994; He et al., 2014). The PWT was determined according to the formula provided by Dixon (Dixon, 1980). […] HC-030031 was purchased from Tocris Bioscience (Bristol, UK). Both drugs were dissolved in 10% dimethylsulfoxide (DMSO), 5% Tween 80 and 85% sterile saline solution. The final working solution which was injected by intrathecal route contained <1% DMSO. The number of animals used in each study was based on experience with similar studies and power analysis calculations. Animals were randomized to the different treatment groups and blinded the experimenter to drug treatment to reduce selection and observation bias. After the experiments were completed, no data point was excluded. STATISTICA 6.0 software (StatSoft, Inc., Tulsa, Okla.) was used to conduct all statistical analyses. The Tukey honestly significant difference (HSD) post-hoc test was used to compare specific data points. Bonferroni correction was applied for multiple comparisons. Two-tailed tests were performed, and data are expressed as mean±SEM; P<0.05 was considered significant in all tests.
The sequence from the last 28 amino acids of the C-terminus of the Tmem100-3Q mutant protein was synthesized and myristoylated at its N-terminus (myr-[…]-COOH) (SEQ ID NO: 8) by Twentyfirst Century Biochemicals. […] For the calcium imaging assay, the peptides were added to the calcium imaging buffer with a final concentration of 200 nM and incubated for at least […] at room temperature. For the mice behavioral assays, the peptides (5 μL, 2 mM) were injected subcutaneously in the hindpaw at least 30 minutes before testing. For the rat behavior assays, human T100-3Q (h-T100), a palmitoylated cell permeable peptide mutated based on the C terminus of human sequence in Tmem100, was applied. The sequence is Palmitoyl-[…]-COOH (SEQ ID NO: 7).

TRPA1 = system: T1, TRPA1; assay: MO-gated whole-cell voltage clamp in CHO cells expressing TRPA1+TRPV1; format: cell-based; conditions: Vh=-60 mV; TRPA1+TRPV1+Tmem100-3Q (1:1:4) CHO cells
T1 construct: MO (10 μM)-evoked Ca2+ influx; other: TRPA1+TRPV1+Tmem100-3Q (1:1:4) CHO cells; MO (10 μM)-gated whole-cell current density; other: Vh=-60 mV; TRPA1+TRPV1+Tmem100-3Q (1:1:4) CHO cells; MO (10 μM)-induced single-channel activity (NPo); co-expressed with TRPA1+TRPV1 (1:1:4) in CHO cells
Experimental: Recordings were made in cell-attached single-channel or whole-cell voltage clamp configurations at 22-24° C. from the somata of small-to-medium mouse DRG neurons (15-35 pF) or CHO cells. For whole-cell configuration, holding potential (Vh) is −60 mV. Data were acquired and analyzed using an Axopatch 200B amplifier and pCLAMP9.0 software (Molecular Devices, Sunnyvale, Calif.). Borosilicate pipettes (Sutter, Novato, Calif.) were pulled and polished to resistances of 3-5 MΩ (in whole-cell and single-channel pipette solutions). Access resistance (Rs) was compensated (40-80%) when appropriate up to the value 7-10 MΩ for whole-cell configuration. Whole-cell recording data were filtered at 0.5 kHz and sampled at 2 kHz. Single-channels currents were filtered with an 8-pole, low pass Bessel filter at 0.1 kHz and sampled at 0.5 kHz, since dwelling time (τ) of the TRPA1 and TRPV1 single-currents were >0.5 sec. Whole-cell recorded data were rejected when Rs changed >20% during recording, leak currents were >100 pA, or input resistance was <200 MΩ.
Standard external solution (SES) for whole-cell patch recording contained (in mM): 140 NaCl, 5 KCl, 2 CaCl2, 1 MgCl2, 10 D-glucose and 10 HEPES, pH 7.4. Vehicle, which is 0.01% DMSO, was added to external solutions. […] The baseline activities of the cells were recorded for 1-2 min prior drug applications. […]

Row | Molecule | ipsilateral paw withdrawal threshold (PWT) vs pre-drug [1] | MO (10 μM)-gated whole-cell current density (TRPA1) [pA/pF]
1 | myr-QRVLEQVLQNWSRRANVKQAQKFQVKCT-COOH (Myristoyl-QRVLEQVLQNWSRRANVKQAQKFQVKCT-OH; SMILES CCCCCCCCCCCCCC(=O)N[C@@H](CCC(N)=O)C(=O)N[C@@H](CCCNC(=N)N)C(=O)N[C@H](C(=O)N[C@@H](CC(C)C)C(=O)N[C@@H](CCC(=O)O)C(=O)N[C@@H](CCC(N)=O)C(=O)N[C@H](C(=O)N[C@@H](CC(C)C)C(=O)N[C@@H](CCC(N)=O)C(=O)N[C@@H](CC(N)=O)C(=O)N[C@@H](Cc1c[nH]c2ccccc12)C(=O)N[C@@H](CO)C(=O)N[C@@H](CCCNC(=N)N)C(=O)N[C@@H](CCCNC(=N)N)C(=O)N[C@@H](C)C(=O)N[C@@H](CC(N)=O)C(=O)N[C@H](C(=O)N[C@@H](CCCCN)C(=O)N[C@@H](CCC(N)=O)C(=O)N[C@@H](C)C(=O)N[C@@H](CCC(N)=O)C(=O)N[C@@H](CCCCN)C(=O)N[C@@H](Cc1ccccc1)C(=O)N[C@@H](CCC(N)=O)C(=O)N[C@H](C(=O)N[C@@H](CCCCN)C(=O)N[C@@H](CS)C(=O)N[C@H](C(=O)O)[C@@H](C)O)C(C)C)C(C)C)C(C)C)C(C)C) [scrambled] | no effect | 
2 | B1 |  | 39.16±12.5
